Reference: patent US7973056B2, “Triazole derivative or salt thereof” (Fujifilm Finechemicals Co., Ltd, priority 2008, dated 2011)
Converted amounts (≈) assume the structure as drawn. Blank lines part the entries; values can stand above or below the compound they belong to.

Tests used:
[1] = test system: Microsporum canis ATCC 36299; test: Antifungal activity test (in vitro), MIC; format: cell-based; settings: ATCC36299
Experimental: (§1) Minimum inhibitory concentration (MIC) of each of the compounds obtained in Examples 1 to 12 was measured for respective fungi at MOS Pharm Service, by the methods described in Antimicrobial Agents and Chemotherapy, vol. 3, pp. 40-48 (1973), Antimicrobial Agents and Chemotherapy, vol. 33, pp. 215-222 (1989) and Antimicrobial Agents and Chemotherapy, vol. 38, pp. 2362-2368 (1994). The measuring conditions are shown in the following. In this case, Voriconazol was used as a comparative compound. Microsporum canis ATCC 36299; Cultured at 30° C. for 2 days using fluid Sabouraud medium, and this was used as a cell suspension. Each of the compounds of the invention was adjusted to a concentration of 1% by weight using dimethyl sulfoxide (DMSO) and a medium similar to the respective medium used in the above-mentioned fungal culture, having a final concentration of from 0.001 to 100 μg/ml, was prepared. Each of the inoculation cell suspensions prepared by the above-mentioned methods was inoculated onto this agar plate. […] In this connection, Voriconazol was used as the comparative compound C-1.

[2] = test system: Candida albicans ATCC 10231; test: Antifungal activity test (in vitro), MIC; format: cell-based; settings: ATCC10231
Experimental: as §1, with “Candida albicans” for “Microsporum canis”, “10231 and ATCC 44858;” for “36299;”, “37°” for “30°”, “20 hours” for “2 days”

[3] = test system: Aspergillus fumigatus ATCC 1028; test: Antifungal activity test (in vitro), MIC; format: cell-based; settings: ATCC1028
Experimental: Minimum inhibitory concentration (MIC) of each of the compounds obtained in Examples 1 to 12 was measured for respective fungi at MOS Pharm Service, by the methods described in Antimicrobial Agents and Chemotherapy, vol. 3, pp. 40-48 (1973), Antimicrobial Agents and Chemotherapy, vol. 33, pp. 215-222 (1989) and Antimicrobial Agents and Chemotherapy, vol. 38, pp. 2362-2368 (1994). The measuring conditions are shown in the following. In this case, Voriconazol was used as a comparative compound.
Aspergillus fumigatus ATCC 1028; Cultured at 28° C. for 2 days using potato dextrose broth, and this was used as a cell suspension.
Each of the compounds of the invention was adjusted to a concentration of 1% by weight using dimethyl sulfoxide (DMSO) and a medium similar to the respective medium used in the above-mentioned fungal culture, having a final concentration of from 0.001 to 100 μg/ml, was prepared. Each of the inoculation cell suspensions prepared by the above-mentioned methods was inoculated onto this agar plate. […] In this connection, Voriconazol was used as the comparative compound C-1.

[4] = test system: Pityrosporum ovale ATCC 38593; test: Antifungal activity test (in vitro), MIC; format: cell-based; settings: Malassezia furfur, ATCC38593
Experimental: as §1, with “Cryptococcus neoformans” for “Microsporum canis”, “24067, Pityrosporum ovale ATCC 38593;” for “36299;”, “37°” for “30°”, “day” for “days”

[5] = test system: Cryptococcus neoformans ATCC 24067; test: Antifungal activity test (in vitro), MIC; format: cell-based; settings: ATCC24067
Experimental: as §1, with “Cryptococcus neoformans” for “Microsporum canis”, “24067, Pityrosporum ovale ATCC 38593;” for “36299;”, “37°” for “30°”, “day” for “days”

[6] = test system: Trichophyton mentagrophytes ATCC 9533; test: Antifungal activity test (in vitro), MIC; format: cell-based; settings: ATCC9533
Experimental: as §1, with “compound. Trichophyton mentagrophytes” for “compound. Microsporum canis”, “ATCC 9533;” for “ATCC 36299;”, “at 28°” for “at 30°”, “for 3” for “for 2”

[7] = test system: Candida albicans ATCC 44858; test: Antifungal activity test (in vitro), MIC; format: cell-based; settings: ATCC44858
Experimental: as §1, with “Candida albicans” for “Microsporum canis”, “10231 and ATCC 44858;” for “36299;”, “37°” for “30°”, “20 hours” for “2 days”

[8] = test system: Aspergillus niger ATCC 8740; test: Antifungal activity test (in vitro), MIC; format: cell-based; settings: ATCC8740
Experimental: as §1, with “Aspergillus niger” for “Microsporum canis”, “8740;” for “36299;”, “28°” for “30°”, “potato dextrose broth,” for “fluid Sabouraud medium,”

[9] = test system: Trichophyton rubrum ATCC 10218; test: Antifungal activity test (in vitro), MIC; format: cell-based; settings: ATCC10218
Experimental: as §1, with “compound. Trichophyton rubrum” for “compound. Microsporum canis”, “ATCC 10218;” for “ATCC 36299;”, “at 28°” for “at 30°”, “for 3” for “for 2”

SMILES: Cc1ccc(C2=CCN([C@H](C)[C@](O)(Cn3cncn3)c3ccc(F)cc3F)CC2)nc1C [I-4, (2R,3R)-2-(2,4-difluorophenyl)-3-(5,6-dimethyl-3′,6′-dihydro-2,4′-bipyridin-1′(2′H)-yl)-1-(1,2,4-triazol-1-yl)butan-2-ol]
MIC [1]: 1 µg/mL (≈ 2.28 µM) | MIC [2]: 0.3 µg/mL (≈ 0.683 µM) | MIC [3]: 10 µg/mL (≈ 22.8 µM) | melting point: 85.5 to 87.5 °C | MIC [4]: 10 µg/mL (≈ 22.8 µM) | MIC [5]: 0.1 µg/mL (≈ 0.228 µM) | MIC [6]: 0.3 µg/mL (≈ 0.683 µM)

SMILES: C[C@@H](N1CCCC(c2ccccn2)C1)[C@](O)(Cn1cncn1)c1ccc(F)cc1F (stereo partly drawn) [I-12, (2R,3R)-2-(2,4-difluorophenyl)-3-(3-pyridin-2-ylpiperidin-1-yl)-1-(1,2,4-triazol-1-yl)butan-2-ol]
MIC [1]: 100 µg/mL (≈ 242 µM) | MIC [2]: 0.1 µg/mL (≈ 0.242 µM) | MIC [3]: 100 µg/mL (≈ 242 µM) | melting point: 75 to 78 °C | MIC [4]: 10 µg/mL (≈ 24.2 µM) | MIC [5]: 10 µg/mL (≈ 24.2 µM) | MIC [6]: 100 µg/mL (≈ 242 µM)

SMILES: C[C@@H](Oc1cc(-c2ccccn2)ccn1)[C@](O)(Cn1cncn1)c1ccc(F)cc1F [I-9, (2R,3R)-3-(2,4′-bipyridin-2′-yloxy)-2-(2,4-difluorophenyl)-1-(1,2,4-triazol-1-yl)butan-2-ol]
MIC [1]: 10 µg/mL (≈ 23.6 µM) | MIC [2]: 0.3 µg/mL (≈ 0.709 µM) | MIC [3]: 30 µg/mL (≈ 70.9 µM) | melting point: 178 to 180 °C | MIC [4]: 0.3 µg/mL (≈ 0.709 µM) | MIC [5]: 0.3 µg/mL (≈ 0.709 µM) | MIC [6]: 10 µg/mL (≈ 23.6 µM)

SMILES: C[C@@H](N1CC=C(c2ccc(F)cn2)CC1)[C@](O)(Cn1cncn1)c1ccc(F)cc1F [I-7, (2R,3R)-2-(2,4-difluorophenyl)-3-(5-fluoro-3′,6′-dihydro-2,4′-bipyridin-1′(2′H)-yl)-1-(1,2,4-triazol-1-yl)butan-2-ol]
MIC [1]: 10 µg/mL (≈ 23.3 µM) | MIC [2]: 0.1 µg/mL (≈ 0.233 µM) | MIC [3]: 10 µg/mL (≈ 23.3 µM) | melting point: 148 to 150 °C | MIC [4]: 0.01 µg/mL (≈ 0.0233 µM) | MIC [5]: 0.3 µg/mL (≈ 0.699 µM) | MIC [6]: 1 µg/mL (≈ 2.33 µM)

SMILES: Cc1ccc(C2=CCN([C@H](C)[C@](O)(Cn3cncn3)c3ccc(F)cc3F)CC2)nc1 [I-5, (2R,3R)-2-(2,4-difluorophenyl)-3-(5-methyl-3′,6′-dihydro-2,4′-bipyridin-1′(2′H)-yl)-1-(1,2,4-triazol-1-yl)butan-2-ol]
MIC [1]: 1 µg/mL (≈ 2.35 µM) | MIC [2]: 0.1 µg/mL (≈ 0.235 µM) | MIC [3]: 3 µg/mL (≈ 7.05 µM) | melting point: 115 to 117 °C | MIC [4]: 0.003 µg/mL (≈ 0.00705 µM) | MIC [5]: 0.03 µg/mL (≈ 0.0705 µM) | MIC [6]: 0.1 µg/mL (≈ 0.235 µM)

More lines, now with the values ahead:

MIC [1]: 10 µg/mL (≈ 23.2 µM) | MIC [2]: 0.1 µg/mL (≈ 0.232 µM) | MIC [3]: 10 µg/mL (≈ 23.2 µM) | melting point: 100 to 102 °C | MIC [4]: 0.01 µg/mL (≈ 0.0232 µM) | MIC [5]: 0.3 µg/mL (≈ 0.695 µM) | MIC [6]: 1 µg/mL (≈ 2.32 µM)
SMILES: C[C@@H](N1CCC(c2ccc(F)cn2)CC1)[C@](O)(Cn1cncn1)c1ccc(F)cc1F [I-2, (2R,3R)-2-(2,4-difluorophenyl)-3-[4-(5-fluoropyridin-2-yl)piperidin-1-yl]-1-(1,2,4-triazol-1-yl)butan-2-ol]

MIC [1]: 100 µg/mL (≈ 243 µM) | MIC [2]: 3 µg/mL (≈ 7.29 µM) | MIC [3]: 100 µg/mL (≈ 243 µM) | melting point: 89 to 92 °C | MIC [4]: 0.3 µg/mL (≈ 0.729 µM) | MIC [5]: 1 µg/mL (≈ 2.43 µM) | MIC [6]: 3 µg/mL (≈ 7.29 µM)
SMILES: C[C@@H](N1CCC=C(c2ccccn2)C1)[C@](O)(Cn1cncn1)c1ccc(F)cc1F [I-10, (2R,3R)-2-(2,4-difluorophenyl)-3-(5′,6′-dihydro-2,3′-bipyridin-1′(2′H)-yl)-1-(1,2,4-triazol-1-yl)butan-2-ol]

MIC [1]: 3 µg/mL (≈ 8.59 µM) | MIC [2]: 0.3 µg/mL (≈ 0.859 µM) | MIC [7]: 0.3 µg/mL (≈ 0.859 µM) | MIC [8]: 0.1 µg/mL (≈ 0.286 µM) | MIC [3]: 0.3 µg/mL (≈ 0.859 µM) | MIC [9]: 0.3 µg/mL (≈ 0.859 µM) | MIC [4]: 0.3 µg/mL (≈ 0.859 µM) | MIC [5]: 0.1 µg/mL (≈ 0.286 µM) | MIC [6]: 0.1 µg/mL (≈ 0.286 µM)
SMILES: C[C@@H](c1ncncc1F)[C@](O)(Cn1cncn1)c1ccc(F)cc1F [C-1, Voriconazol, reference compound]
